The values below come from patent publication US12648984B2, “Long term treatment of psoriasis” (priority 2023, dated 2026).

This assay concerns extensive plaque psoriasis on the trunk. Nature of the assay: one patient case: once-daily topical application on the whole trunk. It is filed as in vivo, human. The settings on record: same patient; for effect of earlier treatments on redness and psoriasis: regular treatment before the composition (UVA, then hydrocortisone, then Acitretine); for status upon cessation of earlier treatments: upon cessation of earlier treatment. The text has this:
The composition has been evaluated in one patient case. A […], presenting extensive plaque psoriasis on the trunk for several years (illustration 1), was regularly treated with UVA, then hydrocortisone, then Acitretine.
They were provided with the composition according to the invention to apply once daily on the whole trunk. No concomitant treatment for psoriasis or else was used.
After 6 months, treatment with the composition was discontinued. Several months after discontinuation, the patient was questioned regarding the status of the disease.

With `COc1cc(C)c(/C=C/C(C)=C/C=C/C(C)=C/C(=O)O)c(C)c1C` [Acitretine], the “effect of earlier treatments on redness and psoriasis” value is “reduced redness, but never the psoriasis itself”; the “status upon cessation of earlier treatments” value was “redness came back”.
Regarding `C[C@]12CCC(=O)C=C1CC[C@@H]1[C@@H]2[C@@H](O)C[C@@]2(C)[C@H]1CC[C@]2(O)C(=O)CO` [hydrocortisone], the “effect of earlier treatments on redness and psoriasis” value is on record as “reduced redness, but never the psoriasis itself”; the “status upon cessation of earlier treatments” value was “redness came back”.
